Data published in the NIST ThermoML archive (doi:10.1016/j.jct.2016.07.001).
Numbers after ± are expanded uncertainties.

What was measured:
[1] = Crystal; DTA
[2] = Molar enthalpy of transition or fusion; conditions: Crystal; DSC

With `O=S(=O)(c1ccc(O)cc1)c1ccccc1O` [2,4'-dihydroxydiphenyl sulfone] the Normal melting temperature [1] was 182.20 ± 1.1 °C and the “Molar enthalpy of transition or fusion” value [2] was 10.2 ± 0.263 kcal/mol.
